Measured values taken from paper PMC7311426, “An amphipathic peptide with antibiotic activity against multidrug-resistant Gram-negative bacteria” (Nature Communications, 2020).
≈ marks a conversion by molar mass, not a printed value. Residues, ends and D or L forms follow the SMILES beside them.

How the values were obtained:
E. coli = assay: microbe, parasite or virus in culture
Procedure: (§1) Antimicrobial activity of arenicin-3 and its analogs was tested against a panel of bacterial and yeast strains by in vitro broth microdilution (BMD) assay with minimum inhibitory concentration (MIC) determination. Strains were purchased from American Type Culture Collection (ATCC) or obtained from clinical collaborators (full strain profiles provided in Supplementary Data 3). All peptides were prepared in Ringer’s acetate solution, and subsequently diluted fresh in water for each independent assay.
(§2) Assays were performed in Mueller Hinton broth (MHB; BD, Cat. No. 211443) for bacteria, and yeast extract-peptone dextrose (YPD; Sigma-Aldrich, Y1500) for yeast. The concentrations of the peptides and comparator antibiotics/antifungals in the assay wells ranged from either 128 or 64 μg mL^−1, to 0.06 or 0.03 μg mL^−1 as a 12-point dose response plated as a 2-fold dilution series across the wells of the plate in duplicate for each independent biological replicate, using a final cell density of 5 × 10^5 CFU mL^−1 and 2.5 × 10^3 CFU mL^−1 for bacteria and yeast respectively. Final assay volumes were 100 μL per well with MICs determined visually following 18-20 h incubation at 37 °C for bacteria, 24 h incubation at 35 °C for Candida albicans, and 24 h incubation at 35 °C with resazurin addition (0.006%; Sigma-Aldrich, Cat # R7017) for a further 3 h for Cryptococcus neoformans, without shaking. Additional bacterial and yeast susceptibility assays were performed in Cation-Adjusted Mueller Hinton Broth (CAMHB; BD, Cat No. 212322) and Roswell Park Memorial Institute (RPMI) 1640 culture medium (Life Technologies Australia, Cat No. 21870092), respectively, as recommended by CLSI guidelines (M07 11th ed[36] and M27 4th ed[37]). […] Agarose MICs were determined in MHB with 1% agarose (Bioline molecular grade; Cat no: BIO-41025; high purity, high gel strength). All experiments were performed a minimum of six replicates (n ≥ 6).

E. coli K12 MG1655 = assay: ATP release, BacTiter-Glo luminescence; format: cell-based, Escherichia coli; conditions: E. coli K12, X = xMIC, 24 Y values
Procedure: ATP was measured using the BacTiter-Glo^TM Microbial Cell Viability Assay (Promega) following the manufacturer’s instructions. The assay was performed for three biological replicates at 37 °C, with luminescence recorded using a Tecan Infinite M1000 Pro plate reader. The fold reduction of ATP was calculated as: Fold reduction ATP = 1 − (Ltreat − Lmedia/Lcontrol − Lmedia); where Ltreat is the luminescence of treated cells, Lmedia is the luminescence of CAMHB without cells, and Lcontrol is the luminescence of untreated cells. Resultant graphs show mean (n = 7) and std error for each data point, prepared in Prism 8. DMSO was included as a control as piperacillin was solubilized in DMSO, with final assay concentration of 2.5%.

A. baumannii = assay: microbe, parasite or virus in culture
Procedure: as §1, §2

C. albicans = assay: microbe, parasite or virus in culture; conditions: 24 h
Procedure: as §1, §2

K. pneumoniae = assay: microbe, parasite or virus in culture
Procedure: as §1, §2

P. aeruginosa = assay: microbe, parasite or virus in culture
Procedure: as §1, §2

S. aureus = assay: microbe, parasite or virus in culture
Procedure: as §1, §2

E. coli ATCC 25922 = assay: microbe, parasite or virus in culture; format: cell-based, Escherichia coli; conditions: ATCC 25922
Procedure: Assays were performed in Mueller Hinton broth (MHB; BD, Cat. No. 211443) for bacteria, and yeast extract-peptone dextrose (YPD; Sigma-Aldrich, Y1500) for yeast. The concentrations of the peptides and comparator antibiotics/antifungals in the assay wells ranged from either 128 or 64 μg mL^−1, to 0.06 or 0.03 μg mL^−1 as a 12-point dose response plated as a 2-fold dilution series across the wells of the plate in duplicate for each independent biological replicate, using a final cell density of 5 × 10^5 CFU mL^−1 and 2.5 × 10^3 CFU mL^−1 for bacteria and yeast respectively. Final assay volumes were 100 μL per well with MICs determined visually following 18-20 h incubation at 37 °C for bacteria, 24 h incubation at 35 °C for Candida albicans, and 24 h incubation at 35 °C with resazurin addition (0.006%; Sigma-Aldrich, Cat # R7017) for a further 3 h for Cryptococcus neoformans, without shaking. Additional bacterial and yeast susceptibility assays were performed in Cation-Adjusted Mueller Hinton Broth (CAMHB; BD, Cat No. 212322) and Roswell Park Memorial Institute (RPMI) 1640 culture medium (Life Technologies Australia, Cat No. 21870092), respectively, as recommended by CLSI guidelines (M07 11th ed[36] and M27 4th ed[37]). […] However, for yeast it was determined that the YPD media was more reliable and robust between repeats and therefore MICs in this media are reported. […] Agarose MICs were determined in MHB with 1% agarose (Bioline molecular grade; Cat no: BIO-41025; high purity, high gel strength). All experiments were performed a minimum of six replicates (n ≥ 6).

in vitro = conditions: human
Procedure: (§3) HEK-293 human embryonic kidney cells (ATCC CRL-1573), HepG2 liver hepatocellular carcinoma cells (ATCC HB-8065), and HK-2 human kidney proximal tubule cells (ATCC CRL-2190) cell lines were purchased from ATCC. Cytotoxicity of arenicin-3 variants was determined using the Alamar Blue (resazurin; Sigma-Aldrich, Cat # R7017), with 1% FBS for HK-2 and 10% FBS for HEK-293, and HepG2[40]. Cells were seeded as 2000 cells per well in black wall clear bottom 384-well plates (Corning®, Costar®, Cat # 3712). The cells were incubated for 24 h at 37 °C, 5% CO2. Then peptides were added into each cell containing well. After 24 h incubation, 5 μM resazurin were added per well and incubated at 37 °C for 2 h. Then the fluorescence intensity (FI) was read using a Polarstar® Omega plate reader with excitation/emission 560/590 and CC50 values were determined using Prism 8 following curve fitting and applying the following equation: Percentageviability = (FITEST-FINegative/FIUNTREATED-FINegative)×100.
(§4) Hemolytic activity was measured against isolated human erythrocytes from anonymously donated fresh human blood. Isolated erythrocytes were adjusted to 1 × 10^9 blood cells mL^−1 in phosphate-buffered saline (PBS, pH 7.4), added to the wells of NUNC polypropylene round-bottom 96-well plates (Sigma-Aldrich, Cat # P6866) then up to 300 μg mL^−1 of compound was added per well and incubated for 3 h at 37 °C. Following incubation, samples were centrifuged at 3000 rpm for 20 min, and the supernatants, 100 μL, were carefully collected for measurement. The degree of hemolysis in the samples was determined by measurement of the absorption of the supernatants at 540 nm using the Polarstar-Omega plate reader. 1% Triton-X100 was used as positive control for inducing 100% hemolysis. HC10 and HC50 values were determined using Prism 8 following curve fitting. The use of human blood (sourced from the Australian Red Cross Blood Service) for hemolysis assays was approved by the University of Queensland Institutional Human Research Ethics Committee, Approval Number 2014000031. All in vitro toxicity assays were performed for two independent biological replicates as an 8-point dose response of 3-fold dilution series in triplicate with the highest test concentration of 300 μg mL^−1.

[1] = system: HEK-293 human embryonic kidney cells; assay: in vitro
Procedure: as §3, §4

[2] = system: HK-2 human kidney proximal tubule cells; assay: in vitro
Procedure: as §3, §4

[3] = system: HepG2 liver hepatocellular carcinoma cells; assay: in vitro
Procedure: as §3, §4

[4] = system: human erythrocytes (HRBC); format: cell-based
[5] = fit headed 10 min, four-parameter variable slope
[6] = fit headed 30 min, four-parameter variable slope
[7] = fit headed 60 min, four-parameter variable slope

Structure (SMILES)	BMD MIC (A. baumannii) [µg/mL]	BMD MIC (C. albicans) [µg/mL]	BMD MIC (E. coli) [µg/mL]	BMD MIC (K. pneumoniae) [µg/mL]	BMD MIC (P. aeruginosa) [µg/mL]	BMD MIC (S. aureus) [µg/mL]	MIC, MHB (E. coli ATCC 25922) [µg/mL]	CC50 at 24 h (in vitro; HEK-293 cells) [µg/mL]	CC50 at 24 h (in vitro; HK-2 cells) [µg/mL]	CC50 at 24 h (in vitro; HepG2 cells) [µg/mL]	CC50 HEK293, Mean [1] [µg/mL]	CC50 HK2, Mean [2] [µg/mL]	CC50 HepG2, Mean [3] [µg/mL]	Heamolysis HC10, Mean [4] [µg/mL]	other results
CCN1CCN(C(=O)N[C@@H](C(=O)N[C@@H]2C(=O)N3[C@@H]2SC(C)(C)[C@@H]3C(=O)O)c2ccccc2)C(=O)C1=O [piperacillin]	–	–	–	–	–	–	–	–	–	–	–	–	–	–	MIC (E. coli; Escherichia coli, ATCC700926|MG1655, read-out: BMD MIC, E. coli ATCC 700926 K12 (MG1655), CAMHB, mode of 6 replicates): 2 µg/mL (≈ 3.86 µM); ATP release, nonlinear fit: HillSlope (E. coli K12 MG1655; [5]): ~ -467.9; ATP release, nonlinear fit: IC50 (E. coli K12 MG1655; [5]): ~ 31.42 xMIC; ATP release, nonlinear fit: LogIC50 (E. coli K12 MG1655; [5]): ~ 1.497; ATP release, nonlinear fit: Top (E. coli K12 MG1655; [5]): 0.08165; ATP release, nonlinear fit: Bottom (E. coli K12 MG1655; fit headed 10 min, log(inhibitor) vs. response, variable slope (four parameters)): 0.04818; ATP release, nonlinear fit: Bottom (E. coli K12 MG1655; [6]): ~ 0.04736; ATP release, nonlinear fit: IC50 (E. coli K12 MG1655; [6]): ~ 0.000 xMIC; ATP release, nonlinear fit: Top (E. coli K12 MG1655; [6]): 0.07515; ATP release, nonlinear fit: Bottom (E. coli K12 MG1655; [7]): 0.00107; ATP release, nonlinear fit: HillSlope (E. coli K12 MG1655; [7]): ~ 0.6194; ATP release, nonlinear fit: LogIC50 (E. coli K12 MG1655; [7]): ~ 16.74; ATP release, nonlinear fit: Top (E. coli K12 MG1655; [7]): 0.1665
CC(C)[C@@H]1NC(=O)CNC(=O)[C@H](CC(N)=O)NC(=O)[C@H](CCCNC(=N)N)NC(=O)[C@H](Cc2ccc(O)cc2)NC(=O)[C@H](C(C)C)NC(=O)[C@@H]2CSSC[C@H](NC(=O)[C@H](C)NC(=O)[C@H](CCCNC(=N)N)NC1=O)C(=O)N[C@@H](Cc1ccc(O)cc1)C(=O)N[C@@H](CCCNC(=N)N)C(=O)N[C@@H](CCCNC(=N)N)C(=O)N[C@H](C(=O)N[C@@H](CC(N)=O)C(=O)O)CSSC[C@H](NC(=O)[C@H](Cc1ccccc1)NC(=O)CN)C(=O)N[C@@H](Cc1c[nH]c3ccccc13)C(=O)N[C@@H](CCCNC(=N)N)C(=O)N[C@@H](C)C(=O)N2 [NZ17228] (HELM PEPTIDE1{G.F.C.W.R.A.C.V.Y.R.N.G.V.R.A.C.Y.R.R.C.N}$PEPTIDE1,PEPTIDE1,3:R3-20:R3|PEPTIDE1,PEPTIDE1,7:R3-16:R3$$$V2.0)	1	64	0.125	0.25	0.5	64	0.125 (≈ 0.049 µM)	> 300	> 250	> 300	>300	>250	>300	>300	CC50 HEK293 [1]: >300 µg/mL; CC50 HK2 [2]: >255 µg/mL; CC50 HepG2 [3]: >300 µg/mL; Heamolysis HC10 ([4]; red cells of human, 3 h): >300 µg/mL
CC(C)C[C@@H]1NC(=O)CNC(=O)[C@H](CC(N)=O)NC(=O)[C@H](CCCNC(=N)N)NC(=O)[C@H](CO)NC(=O)[C@H](C)NC(=O)[C@@H]2CSSC[C@H](NC(=O)[C@H](C(C)C)NC(=O)[C@H](CCCNC(=N)N)NC1=O)C(=O)N[C@@H](Cc1ccc(O)cc1)C(=O)N[C@@H](CCCNC(=N)N)C(=O)N[C@@H](CCCNC(=N)N)C(=O)N[C@H](C(=O)N[C@@H](CC(N)=O)C(=O)O)CSSC[C@H](NC(=O)[C@H](Cc1ccccc1)NC(=O)CN)C(=O)N[C@@H](Cc1c[nH]c3ccccc13)C(=O)N[C@@H](CCCNC(=N)N)C(=O)N[C@@H](C(C)C)C(=O)N2 [NZ17125] (HELM PEPTIDE1{G.F.C.W.R.V.C.A.S.R.N.G.L.R.V.C.Y.R.R.C.N}$PEPTIDE1,PEPTIDE1,3:R3-20:R3|PEPTIDE1,PEPTIDE1,7:R3-16:R3$$$V2.0)	1	64	0.125	0.25	0.25	64	0.125 (≈ 0.0497 µM)	250 (≈ 99.4 µM)	110 (≈ 43.7 µM)	299 (≈ 119 µM)	250 (≈ 99.4 µM)	110 (≈ 43.7 µM)	299 (≈ 119 µM)	181	–
